EC50 data for 46 molecules are collected here from patent publication US10034886B2, “GLP-1 receptor modulators” (Celgene International II SÀRL, priority 2014, dated 2018).

Some results are limits rather than exact numbers.

Broadly, the EC50 is the midpoint of the concentration-response curve.

The target of the assay is T1, GLP-1R (Homo sapiens, UniProt P43220).
T1 construct: host or cells: GLP-1R CRE-bla CHO-K1 cells
T1 sequence (P43220 24-463): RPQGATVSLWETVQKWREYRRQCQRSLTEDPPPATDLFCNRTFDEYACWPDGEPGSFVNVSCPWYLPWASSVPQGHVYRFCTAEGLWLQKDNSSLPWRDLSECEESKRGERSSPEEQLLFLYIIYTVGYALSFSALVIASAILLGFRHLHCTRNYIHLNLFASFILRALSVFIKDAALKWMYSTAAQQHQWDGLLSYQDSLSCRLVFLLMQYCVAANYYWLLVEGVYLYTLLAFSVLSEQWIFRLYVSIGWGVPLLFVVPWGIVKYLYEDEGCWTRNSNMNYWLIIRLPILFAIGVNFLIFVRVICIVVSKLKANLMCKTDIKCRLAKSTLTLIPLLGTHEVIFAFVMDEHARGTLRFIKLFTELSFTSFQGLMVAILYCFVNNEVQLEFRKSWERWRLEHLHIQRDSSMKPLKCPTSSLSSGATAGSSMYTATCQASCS
T1 sequence (P01275 100-127 partner limits assumed): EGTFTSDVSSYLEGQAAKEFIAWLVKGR
The assay is described as follows: EC20 GLP-1(9-36) PAM cAMP assay: dose response of compound in the presence of fixed concentration of GLP-1(9-36). Conditions: dose response of compound in presence of fixed concentration of GLP-1(9-36), GLP-1R CRE-bla CHO-K1 cells, read-out: EC20 GLP-1(9-36) PAM EC50. The assay is classed as cell-based. In outline:
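Positive allosteric modulation read as cAMP accumulation: compound titrations (12 points) combined with an EC20 level of GLP-1(9-36) on CHO-K1 GLP-1R CRE-bla cells, IBMX present, 30 min, 37 °C, pH 7.4 buffer. Luminescence converted to cAMP via standards; non-linear fit gave EC50 and Emax.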
A general note: Changes in cAMP serve as a functional read-out for many G protein-coupled receptors.
For `CCCCCCCOc1ccc(-c2cnc(-c3ccc(C[C@H](NC(=O)c4ccc(C(C)(C)C)s4)C(=O)N[C@@H](CC(=O)NCC(N)=O)C(=O)O)cc3)nc2)cc1` [Compound 518], the EC50 fell in the range of 800 to 2500 nM.

On to `CCCCCCCOc1ccc(-c2cnc(-c3ccc(C[C@H](NC(=O)c4ccc(C(C)(C)C)s4)C(=O)N[C@@H](CC(=O)N(C)CCN)C(=O)O)cc3)nc2)cc1` [Compound 519], for which the EC50 is 800 to 2500 nM. Regarding `CCCCCCCOc1ccc(-c2cnc(-c3ccc(C[C@H](NC(=O)c4ccc(C(C)(C)C)s4)C(=O)N[C@@H](CC(=O)N(C)CCN(C)C)C(=O)O)cc3)nc2)cc1` [Compound 520], the concentration giving a half-maximal response (EC50) is 800 to 2500 nM. Then `CCCCCCCOc1ccc(-c2cnc(-c3ccc(C[C@H](NC(=O)c4ccc(C(C)(C)C)s4)C(=O)N[C@@H](CC(=O)NCCO)C(=O)O)cc3)nc2)cc1` [Compound 521], with less than 800 nM; and `CCCCCCCOc1ccc(-c2cnc(-c3ccc(C[C@H](NC(=O)c4ccc(C(C)(C)C)s4)C(=O)N[C@@H](CC(=O)Nc4nnn[nH]4)C(=O)O)cc3)nc2)cc1` [Compound 522], with 800 to 2500 nM. Take `CCCCCCCOc1ccc(-c2cnc(-c3ccc(C[C@H](NC(=O)c4ccc(C(C)(C)C)s4)C(=O)N[C@@H](CC(=O)NS(C)(=O)=O)C(=O)O)cc3)nc2)cc1` [Compound 523]: the EC50 was less than 800 nM. Take `CCCCCCCOc1ccc(-c2cnc(-c3ccc(C[C@H](NC(=O)c4ccc(C(C)(C)C)s4)C(=O)N[C@@H](CC(=O)OCc4ccccc4)C(=O)O)cc3)nc2)cc1` [Compound 524, (S)-4-(benzyloxy)-2-((S)-2-(5-(tert-butyl)thiophene-2-carboxamido)-3-(4-(5-(4-(heptyloxy)phenyl)pyrimidin-2-yl)phenyl)propanamido)-4-oxobutanoic acid]: the EC50 was less than 800 nM. In the case of `CCCCCCCOc1ccc(-c2cnc(-c3ccc(C[C@H](NC(=O)c4ccc(C(C)(C)C)s4)C(=O)N[C@@H](CC(=O)O)C(N)=O)cc3)nc2)cc1` [Compound 525], the EC50 is less than 800 nM. Take `CCCCCCCOc1ccc(-c2cnc(-c3ccc(C[C@H](NC(=O)c4ccc(C(C)(C)C)s4)C(=O)N[C@@H](CC(=O)O)C(=O)NC)cc3)nc2)cc1` [Compound 526]: the EC50 was less than 800 nM.

For `CCCCCCCOc1ccc(-c2cnc(-c3ccc(C[C@H](NC(=O)c4ccc(C(C)(C)C)s4)C(=O)N[C@@H](CC(=O)O)C(=O)N(C)C)cc3)nc2)cc1` [Compound 527], the EC50 is less than 800 nM. With `CCCCCCCOc1ccc(-c2cnc(-c3ccc(C[C@H](NC(=O)c4ccc(C(C)(C)C)s4)C(=O)N[C@@H](CC(=O)O)C(=O)N4CCCC4)cc3)nc2)cc1` [Compound 528], the EC50 is less than 800 nM. As for `CCCCCCCOc1ccc(-c2cnc(-c3ccc(C[C@H](NC(=O)c4ccc(C(C)(C)C)s4)C(=O)N[C@@H](CC(=O)O)C(=O)N4CCCCC4)cc3)nc2)cc1` [Compound 529], the EC50 was less than 800 nM.

Regarding `CCCCCCCOc1ccc(-c2cnc(-c3ccc(C[C@H](NC(=O)c4ccc(C(C)(C)C)s4)C(=O)N[C@@H](CC(=O)O)C(=O)NCC(N)=O)cc3)nc2)cc1` [Compound 530], the EC50 is less than 800 nM. For `CCCCCCCOc1ccc(-c2cnc(-c3ccc(C[C@H](NC(=O)c4ccc(C(C)(C)C)s4)C(=O)N[C@@H](CC(=O)O)C(=O)N(C)CCN(C)C)cc3)nc2)cc1` [Compound 531], the EC50 lay within 800 to 2500 nM. On to `CCCCCCCOc1ccc(-c2cnc(-c3ccc(C[C@H](NC(=O)c4ccc(C(C)(C)C)s4)C(=O)N[C@@H](CC(=O)O)C(=O)NCCOC)cc3)nc2)cc1` [Compound 532], for which the 50% effective concentration (EC50) is less than 800 nM. Then `CCCCCCCOc1ccc(-c2cnc(-c3ccc(C[C@H](NC(=O)c4ccc(C(C)(C)C)s4)C(=O)N[C@@H](CC(=O)O)C(=O)N4CCOCC4)cc3)nc2)cc1` [Compound 533], with less than 800 nM. With `CCCCCCCOc1ccc(-c2cnc(-c3ccc(C[C@H](NC(=O)c4ccc(C(C)(C)C)s4)C(=O)N[C@@H](CC(=O)O)C(=O)N4CCNCC4)cc3)nc2)cc1` [Compound 534], the EC50 fell in the range of 800 to 2500 nM. Consider `CCCCCCCOc1ccc(-c2cnc(-c3ccc(C[C@H](NC(=O)c4ccc(C(C)(C)C)s4)C(=O)NC4CCCC(C(=O)O)C4)cc3)nc2)cc1` (stereo partly shown) [Compound 535], for which the concentration giving a half-maximal response (EC50) was in the range of 5000 to 10000 nM. As for `CCCCCCCOc1ccc(-c2cnc(-c3ccc(C[C@H](NC(=O)c4ccc(C(C)(C)C)cc4)C(=O)NC(C(=O)O)c4nc(C)oc4C)cc3)nc2)cc1` (stereo partly shown) [Compound 536], the half-maximal effective concentration (EC50) is 800 to 2500 nM. For `CCCCCCCOc1ccc(-c2cnc(-c3ccc(C[C@H](NC(=O)c4ccc(C(C)(C)C)cc4)C(=O)NC(C)CC(=O)O)cc3)nc2)cc1` (stereo partly shown) [Compound 537], the EC50 was in the range of 5000 to 10000 nM. Turning to `CCCCCCCOc1ccc(-c2cnc(-c3ccc(C[C@H](NC(=O)c4ccc(C(C)(C)C)cc4)C(=O)NC(CC(=O)O)c4cccc(O)c4)cc3)nc2)cc1` (stereo partly shown) [Compound 538], the EC50 was 5000 to 10000 nM. With `CCCCCCCOc1ccc(-c2cnc(-c3ccc(C[C@H](NC(=O)c4ccc(C(C)(C)C)cc4)C(=O)NC(CC(=O)O)c4ccccc4)cc3)nc2)cc1` (stereo partly shown) [Compound 539], the EC50 lay in the range of 5000 to 10000 nM. For `CCCCCCCOc1ccc(-c2cnc(-c3ccc(C[C@H](NC(=O)c4ccc(C(C)(C)C)cc4)C(=O)NC(C(=O)O)C4CCOCC4)cc3)nc2)cc1` (stereo partly shown) [Compound 540], the EC50 was less than 800 nM.

As to `CCCCCCCOc1ccc(-c2cnc(-c3ccc(C[C@H](NC(=O)c4ccc(C(C)(C)C)cc4)C(=O)NC(Cc4cccnc4)C(=O)O)cc3)nc2)cc1` (stereo partly shown) [Compound 541], the EC50 fell in the range of 800 to 2500 nM. For `CCCCCCCOc1ccc(-c2cnc(-c3ccc(C[C@H](NC(=O)c4ccc(C(C)(C)C)cc4)C(=O)N[C@@H](Cc4ccccn4)C(=O)O)cc3)nc2)cc1` [Compound 542] the value was less than 800 nM; for `CCCCCCCOc1ccc(-c2cnc(-c3ccc(C[C@H](NC(=O)c4ccc(C(C)(C)C)cc4)C(=O)NC(C(=O)O)c4ccc(OC)cc4)cc3)nc2)cc1` (stereo partly shown) [Compound 543], less than 800 nM; for `CCCCCCCOc1ccc(-c2cnc(-c3ccc(C[C@H](NC(=O)c4ccc(C(C)(C)C)cc4)C(=O)NC(Cc4cscn4)C(=O)O)cc3)nc2)cc1` (stereo partly shown) [Compound 544], less than 800 nM. Consider `CCCCCCCOc1ccc(-c2cnc(-c3ccc(C[C@H](NC(=O)c4ccc(C(C)(C)C)cc4)C(=O)NC(C(=O)O)c4cccc(C(F)(F)F)c4)cc3)nc2)cc1` (stereo partly shown) [Compound 545], for which the EC50 is less than 800 nM. As to `CCCCCCCOc1ccc(-c2cnc(-c3ccc(C[C@H](NC(=O)c4ccc(C(C)(C)C)cc4)C(=O)N[C@H](C(=O)O)C(C)(C)C)cc3)nc2)cc1` [Compound 546], the EC50 lay within 800 to 2500 nM. As to `CCCCCCCOc1ccc(-c2cnc(-c3ccc(C[C@H](NC(=O)c4ccc(C(C)(C)C)cc4)C(=O)NC(CCCC)C(=O)O)cc3)nc2)cc1` (stereo partly shown) [Compound 547], the EC50 was 800 to 2500 nM.

With `CCCCCCCOc1ccc(-c2cnc(-c3ccc(C[C@H](NC(=O)c4ccc(C(C)(C)C)cc4)C(=O)NC(CC)C(=O)O)cc3)nc2)cc1` (stereo partly shown) [Compound 548], the EC50 was less than 800 nM. As for `CCCCCCCOc1ccc(-c2cnc(-c3ccc(C[C@H](NC(=O)c4ccc(C(C)(C)C)cc4)C(=O)NC(C(=O)O)c4c(C)n[nH]c4C)cc3)nc2)cc1` (stereo partly shown) [Compound 549], the EC50 was less than 800 nM. `CCCCCCCOc1ccc(-c2cnc(-c3ccc(C[C@H](NC(=O)c4ccc(C(C)(C)C)cc4)C(=O)NC(CO)CC(=O)O)cc3)nc2)cc1` (stereo partly shown) [Compound 550]: the EC50 fell in the range of 800 to 2500 nM. For the molecule `CCCCCCCOc1ccc(-c2cnc(-c3ccc(C[C@H](NC(=O)c4ccc(C(C)(C)C)cc4)C(=O)NC(CC(=O)O)C4CCOCC4)cc3)nc2)cc1` (stereo partly shown) [Compound 551], the EC50 is less than 800 nM. For the molecule `CCCCCCCOc1ccc(-c2cnc(-c3ccc(C[C@H](NC(=O)c4ccc(C(C)(C)C)cc4)C(=O)NC(CC(=O)O)c4ccc(OC)cc4)cc3)nc2)cc1` (stereo partly shown) [Compound 552], the EC50 is 800 to 2500 nM. Then `CCCCCCCOc1ccc(-c2cnc(-c3ccc(C[C@H](NC(=O)c4ccc(C(C)(C)C)cc4)C(=O)NC4(CC(=O)O)CCOCC4)cc3)nc2)cc1` [Compound 553], with 800 to 2500 nM; and `CCCCCCCOc1ccc(-c2cnc(-c3ccc(C[C@H](NC(=O)c4ccc(C(C)(C)C)cc4)C(=O)NCC(O)C(=O)O)cc3)nc2)cc1` (stereo partly shown) [Compound 554], with less than 800 nM. As for `CCCCCCCOc1ccc(-c2cnc(-c3ccc(C[C@H](NC(=O)c4ccc(C(C)(C)C)cc4)C(=O)NCC(C(=O)O)C4CCOCC4)cc3)nc2)cc1` (stereo partly shown) [Compound 555], the EC50 is 2500 to 5000 nM. `CCCCCCCOc1ccc(-c2cnc(-c3ccc(C[C@H](NC(=O)c4ccc(C(C)(C)C)cc4)C(=O)NCC(C(=O)O)c4ccccc4)cc3)nc2)cc1` (stereo partly shown) [Compound 556]: the EC50 is less than 800 nM. Take `CCCCCCCOc1ccc(-c2cnc(-c3ccc(C[C@H](NC(=O)c4ccc(C(C)(C)C)cc4)C(=O)NCC(Cc4cccnc4)C(=O)O)cc3)nc2)cc1` (stereo partly shown) [Compound 557]: the EC50 was less than 800 nM.

In the case of `CCCCCCCOc1ccc(-c2cnc(-c3ccc(C[C@H](NC(=O)c4ccc(C(C)(C)C)cc4)C(=O)NCC(Cc4ccc(O)cc4)C(=O)O)cc3)nc2)cc1` (stereo partly shown) [Compound 558], the EC50 was less than 800 nM. For the molecule `CCCCCCCOc1ccc(-c2cnc(-c3ccc(C[C@H](NC(=O)c4ccc(C(C)(C)C)cc4)C(=O)NCC(CC4CCOCC4)C(=O)O)cc3)nc2)cc1` (stereo partly shown) [Compound 559], the EC50 is 5000 to 10000 nM. As for `CCCCCCCOc1ccc(-c2cnc(-c3ccc(C[C@H](NC(=O)c4ccc(C(C)(C)C)cc4)C(=O)NCC(CC4CCOC4)C(=O)O)cc3)nc2)cc1` (stereo partly shown) [Compound 560], the EC50 fell in the range of 800 to 2500 nM. Consider `CCCCCCCOc1ccc(-c2cnc(-c3ccc(C[C@H](NC(=O)c4ccc(C(C)(C)C)cc4)C(=O)NC(Cc4ccccc4)C(=O)O)cc3)nc2)cc1` (stereo partly shown) [Compound 561], for which the concentration giving a half-maximal response (EC50) is less than 800 nM. In the case of `CCCCCCCOc1ccc(-c2cnc(-c3ccc(C[C@H](NC(=O)c4ccc(C(C)(C)C)cc4)C(=O)NC(CCC)C(=O)O)cc3)nc2)cc1` (stereo partly shown) [Compound 562], the EC50 was less than 800 nM. For `CCCCCCCOc1ccc(-c2cnc(-c3ccc(C[C@H](NC(=O)c4ccc(C(C)(C)C)cc4)C(=O)N4CC=CC4C(=O)O)cc3)nc2)cc1` (stereo partly shown) [Compound 563], the EC50 is less than 800 nM.
